Source: patent US12077503B2, “Substituted cyclic amides and their use as herbicides” (FMC CORPORATION, priority 2015, dated 2024)

Experiments:
Assay type in all cases: in vivo
[1] = system: ducksalad (Heteranthera limosa); test: Test B flooded paddy test; conditions: Heteranthera limosa, 250 g ai/ha, Flood; 0 to 100 scale where 0 is no effect and 100 is complete control; read-out: Ducksalad plant response rating
Method in brief: (§1)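 Response scored visually against untreated controls, 0 = no effect and 100 = complete control, 13–15 d after treatment in the greenhouse. Compounds added to paddy water held 3 cm above soil surface. Treatment given at 2-leaf stage.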

[2] = system: sedge, umbrella (small-flower umbrella sedge, Cyperus difformis); test: Test B flooded paddy test; conditions: Cyperus difformis, 250 g ai/ha, Flood; 0 to 100 scale where 0 is no effect and 100 is complete control; read-out: Sedge, Umbrella plant response rating
Method in brief: as §1

rice (Oryra sativa) = test: Test B flooded paddy test; conditions: Oryza sativa, 250 g ai/ha, Flood; 0 to 100 scale where 0 is no effect and 100 is complete control; read-out: Rice plant response rating
Method in brief: as §1

[3] = system: barnyardgrass (Echinochloa crus-galli); test: Test B flooded paddy test; conditions: Echinochloa crus-galli, 250 g ai/ha, Flood; 0 to 100 scale where 0 is no effect and 100 is complete control; read-out: Barnyardgrass plant response rating
Method in brief: as §1

[4] = system: ryegrass, Italian (Italian ryegrass, Lolium multiflorum); test: Test A preemergence; conditions: Lolium multiflorum, pre-emergence, 240 h, preemergence, 0 to 100 scale where 0 is no effect and 100 is complete control, read-out: Ryegrass, Italian plant response rating; for pest or weed control at 125 g/ha: 125 g ai/ha, approx. 10 d; for pest or weed control at 500 g/ha: 500 g ai/ha
Method in brief: (§2)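 Ratings of 0 (no effect) to 100 (complete control) come from visual comparison with untreated controls roughly 10 d after treatment. Test chemicals, formulated in a non-phytotoxic solvent mixture with surfactant, were applied either as a preemergence directed soil spray on seeded soil or postemergence to one- to two-leaf plants 2 to 10 cm tall.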

[5] = system: ragweed (common ragweed, Ambrosia elatior); test: Test A postemergence; conditions: Ambrosia artemisiifolia, post-emergence, 240 h, postemergence; for pest or weed control at 125 g/ha: 125 g ai/ha, visual injury vs untreated controls after approx. 10 d, 0 = no effect, 100 = complete control, read-out: Ragweed plant response rating (0 to 100 scale); for pest or weed control at 500 g/ha: 500 g ai/ha, 0 to 100 scale, 0 is no effect, 100 is complete control, read-out: Ragweed plant response rating
Method in brief: as §2

[6] = system: pigweed (Amaranthus retroflexus); test: Test A postemergence; conditions: Amaranthus retroflexus, post-emergence, 240 h, postemergence; for pest or weed control at 125 g/ha: 125 g ai/ha, visual injury vs untreated controls after approx. 10 d, 0 = no effect, 100 = complete control, read-out: Pigweed plant response rating (0 to 100 scale); for pest or weed control at 500 g/ha: 500 g ai/ha, 0 to 100 scale, 0 is no effect, 100 is complete control, read-out: Pigweed plant response rating
Method in brief: as §2

[7] = system: Galium (catchweed bedstraw, Galium aparine); test: Test A postemergence; conditions: Galium, post-emergence, 240 h, postemergence, read-out: Galium plant response rating; for pest or weed control at 125 g/ha: 125 g ai/ha, visual injury on 0 to 100 scale (0 no effect, 100 complete control), approx. 10 d; for pest or weed control at 500 g/ha: 500 g ai/ha, 0 to 100 scale, 0 is no effect, 100 is complete control
Method in brief: as §2

[8] = system: ryegrass, Italian (Italian ryegrass, Lolium multiflorum); test: Test A postemergence; conditions: Lolium multiflorum, post-emergence, 240 h, postemergence; for pest or weed control at 125 g/ha: 125 g ai/ha, visual injury vs untreated controls after approx. 10 d, 0 = no effect, 100 = complete control, read-out: Ryegrass, Italian plant response rating (0 to 100 scale); for pest or weed control at 500 g/ha: 500 g ai/ha, 0 to 100 scale, 0 is no effect, 100 is complete control, read-out: Ryegrass, Italian plant response rating
Method in brief: as §2

[9] = system: giant foxtail (Setaria faberii); test: Test A postemergence; conditions: Setaria faberi, post-emergence, 240 h, postemergence, read-out: Foxtail, Giant plant response rating; for pest or weed control at 125 g/ha: 125 g ai/ha, visual injury on 0 to 100 scale (0 no effect, 100 complete control), approx. 10 d; for pest or weed control at 500 g/ha: 500 g ai/ha, 0 to 100 scale, 0 is no effect, 100 is complete control
Method in brief: as §2

[10] = system: blackgrass (Alopecurus myosuroides); test: Test A postemergence; conditions: Alopecurus myosuroides, post-emergence, 240 h, postemergence, read-out: Blackgrass plant response rating; for pest or weed control at 125 g/ha: 125 g ai/ha, visual injury on 0 to 100 scale (0 no effect, 100 complete control), approx. 10 d; for pest or weed control at 500 g/ha: 500 g ai/ha, 0 to 100 scale, 0 is no effect, 100 is complete control
Method in brief: as §2

Kochia (Kochia scoparia) = test: Test A postemergence; conditions: Bassia scoparia, post-emergence, 240 h, postemergence, read-out: Kochia plant response rating; for pest or weed control at 125 g/ha: 125 g ai/ha, visual injury on 0 to 100 scale (0 no effect, 100 complete control), approx. 10 d; for pest or weed control at 500 g/ha: 500 g ai/ha, 0 to 100 scale, 0 is no effect, 100 is complete control
Method in brief: as §2

[11] = system: wheat (Triticum aestivum); test: Test A postemergence; conditions: Triticum aestivum, post-emergence, 240 h, postemergence; for plant injury at 125 g/ha: 125 g ai/ha, visual injury vs untreated controls after approx. 10 d, 0 = no effect, 100 = complete control, read-out: Wheat plant response rating (0 to 100 scale); for plant injury at 500 g/ha: 500 g ai/ha, 0 to 100 scale, 0 is no effect, 100 is complete control, read-out: Wheat plant response rating
Method in brief: as §2

corn (Zea mays) = test: Test A postemergence; conditions: Zea mays, post-emergence, 240 h, postemergence, read-out: Corn plant response rating; for plant injury at 125 g/ha: 125 g ai/ha, visual injury on 0 to 100 scale (0 no effect, 100 complete control), approx. 10 d; for plant injury at 500 g/ha: 500 g ai/ha, 0 to 100 scale, 0 is no effect, 100 is complete control
Method in brief: as §2

[12] = system: barnyardgrass (Echinochloa crus-galli); test: Test A postemergence; conditions: Echinochloa crus-galli, post-emergence, 240 h, postemergence, read-out: Barnyardgrass plant response rating; for pest or weed control at 125 g/ha: 125 g ai/ha, visual injury on 0 to 100 scale (0 no effect, 100 complete control), approx. 10 d; for pest or weed control at 500 g/ha: 500 g ai/ha, 0 to 100 scale, 0 is no effect, 100 is complete control
Method in brief: as §2

Row | Compound | pest or weed control at 250 g/ha [1] | pest or weed control at 250 g/ha [2] | pest or weed control at 250 g/ha (rice (Oryra sativa)) | pest or weed control at 250 g/ha [3] | pest or weed control at 125 g/ha [4] | pest or weed control at 500 g/ha [4] | pest or weed control at 125 g/ha [5] | pest or weed control at 500 g/ha [5] | pest or weed control at 125 g/ha [6] | pest or weed control at 500 g/ha [6] | pest or weed control at 125 g/ha [7] | pest or weed control at 500 g/ha [7] | pest or weed control at 125 g/ha [8] | pest or weed control at 500 g/ha [8] | pest or weed control at 125 g/ha [9] | pest or weed control at 500 g/ha [9] | pest or weed control at 125 g/ha [10] | pest or weed control at 500 g/ha [10] | pest or weed control at 125 g/ha (Kochia (Kochia scoparia)) | pest or weed control at 500 g/ha (Kochia (Kochia scoparia)) | also measured
1 | CN1C[C@H](c2ccc(C(F)(F)F)cc2)[C@](F)(C(=O)Nc2cccc(F)c2F)C1=O (racemic) [Compound 1152] | 0% | 0% | 0% | 0% | 0% | 20% | 0% | 0% | 0% | 0% | 0% | 20% | 0% | 0% | 20% | 40% | 0% | 0% | 0% | 0% | plant injury at 125 g/ha [11]: 0%; plant injury at 500 g/ha [11]: 0%; plant injury at 125 g/ha (corn (Zea mays)): 0%; plant injury at 500 g/ha (corn (Zea mays)): 0%; pest or weed control at 125 g/ha [12]: 0%; pest or weed control at 500 g/ha [12]: 0%
2 | CN1C[C@H](c2ccc(F)c(F)c2)[C@@H](C(=S)Nc2ccccc2F)C1=O (racemic) [Compound 1153] | 70% | 0% | 0% | 30% | 30% | 50% | 0% | 0% | 0% | 0% | 30% | 40% | 0% | 0% | 60% | 90% | 0% | 30% | 0% | 0% | plant injury at 125 g/ha [11]: 0%; plant injury at 500 g/ha [11]: 0%; plant injury at 125 g/ha (corn (Zea mays)): 0%; plant injury at 500 g/ha (corn (Zea mays)): 0%; pest or weed control at 125 g/ha [12]: 90%; pest or weed control at 500 g/ha [12]: 90%
